Measured values reported in ChEMBL document CHEMBL1152897, “Synthesis and SAR study of novel pseudo-steroids as potent and selective progesterone receptor antagonists” (Bioorg Med Chem Lett, 2009).

What was measured:
Progesterone receptor = target: T1, Progesterone receptor (Homo sapiens, UniProt P06401); experiment: Antagonist activity at progesterone receptor in human T47D cells assessed as inhibition of progesterone-induced alkaline phosphatase activity; format: functional, cell-based
T1 sequence (P06401 whole entry): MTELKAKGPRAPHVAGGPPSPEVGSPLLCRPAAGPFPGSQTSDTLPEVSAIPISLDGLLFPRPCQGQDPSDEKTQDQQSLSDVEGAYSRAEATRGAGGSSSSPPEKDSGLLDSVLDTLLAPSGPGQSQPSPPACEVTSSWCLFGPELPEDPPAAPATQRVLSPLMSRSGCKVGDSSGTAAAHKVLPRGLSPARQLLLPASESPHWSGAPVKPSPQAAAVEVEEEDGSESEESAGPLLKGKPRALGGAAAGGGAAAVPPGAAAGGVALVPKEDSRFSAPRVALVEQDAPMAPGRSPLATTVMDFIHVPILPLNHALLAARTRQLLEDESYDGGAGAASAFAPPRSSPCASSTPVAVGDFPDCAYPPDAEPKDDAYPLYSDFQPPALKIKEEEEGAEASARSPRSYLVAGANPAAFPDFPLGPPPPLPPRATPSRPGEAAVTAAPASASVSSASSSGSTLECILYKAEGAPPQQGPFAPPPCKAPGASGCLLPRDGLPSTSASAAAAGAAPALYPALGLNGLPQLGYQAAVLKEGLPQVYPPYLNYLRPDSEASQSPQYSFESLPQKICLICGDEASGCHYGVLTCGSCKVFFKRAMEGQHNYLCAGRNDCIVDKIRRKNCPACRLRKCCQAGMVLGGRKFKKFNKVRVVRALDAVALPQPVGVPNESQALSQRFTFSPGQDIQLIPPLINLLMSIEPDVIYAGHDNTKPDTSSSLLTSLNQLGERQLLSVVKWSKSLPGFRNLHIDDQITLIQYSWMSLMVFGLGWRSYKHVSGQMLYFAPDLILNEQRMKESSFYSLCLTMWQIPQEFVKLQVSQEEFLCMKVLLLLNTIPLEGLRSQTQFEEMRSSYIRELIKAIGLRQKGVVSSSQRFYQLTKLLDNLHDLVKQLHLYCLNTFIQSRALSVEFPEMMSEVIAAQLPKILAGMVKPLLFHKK

Glucocorticoid receptor = target: T2, Glucocorticoid receptor (Homo sapiens, UniProt P04150); experiment: Antagonist activity at glucocorticoid receptor in human A549 cells assessed as inhibition of corticoid-induced transcription after 16 hrs by glucocorticoid response element-driven luciferase reporter gene assay; format: functional, cell-based
T2 sequence (P04150 whole entry): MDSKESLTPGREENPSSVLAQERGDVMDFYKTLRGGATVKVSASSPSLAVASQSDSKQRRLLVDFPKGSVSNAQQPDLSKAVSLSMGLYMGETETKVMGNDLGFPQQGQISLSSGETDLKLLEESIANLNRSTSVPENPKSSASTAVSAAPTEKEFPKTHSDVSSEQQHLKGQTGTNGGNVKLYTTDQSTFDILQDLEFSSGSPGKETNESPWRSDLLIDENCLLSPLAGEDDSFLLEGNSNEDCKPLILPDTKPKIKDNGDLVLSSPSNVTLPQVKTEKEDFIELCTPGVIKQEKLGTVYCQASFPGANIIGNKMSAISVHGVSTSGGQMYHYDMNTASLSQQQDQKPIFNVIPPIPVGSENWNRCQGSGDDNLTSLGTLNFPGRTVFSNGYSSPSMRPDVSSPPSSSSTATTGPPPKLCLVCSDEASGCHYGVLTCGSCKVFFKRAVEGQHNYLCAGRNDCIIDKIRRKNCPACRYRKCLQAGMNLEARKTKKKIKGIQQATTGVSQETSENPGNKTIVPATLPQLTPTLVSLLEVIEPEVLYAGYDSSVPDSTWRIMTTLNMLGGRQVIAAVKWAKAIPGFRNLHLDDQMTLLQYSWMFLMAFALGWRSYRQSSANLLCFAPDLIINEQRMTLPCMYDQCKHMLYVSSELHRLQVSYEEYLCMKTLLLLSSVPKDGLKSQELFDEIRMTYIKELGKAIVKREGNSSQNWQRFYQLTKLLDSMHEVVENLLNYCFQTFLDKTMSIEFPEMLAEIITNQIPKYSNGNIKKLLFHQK

Rattus norvegicus = experiment: Blockade of progesterone-dependent inhibition of ethinyl estradiol-induced complement C3 expression in po dosed ovariectomized Sprague-Dawley rat uterus; format: functional, organism-based

IC50 (Progesterone receptor)	IC50 (Glucocorticoid receptor)	IC50 (Rattus norvegicus)	SMILES
82 nM	26 nM	–	COc1ccc([C@H]2OC[C@@]3(C)[C@@H](CC[C@@]3(O)C#Cc3ccc(C(F)(F)F)cc3)[C@@H]3CCC4=CC(=O)CCC4=C32)cc1
> 1000 nM	110 nM	–	C#C[C@]1(O)CC[C@H]2[C@@H]3CCC4=CC(=O)CCC4=C3[C@@H](c3ccc(OC)cc3)OC[C@@]21C
34 nM	17 nM	16 mg/kg	CC#C[C@]1(O)CC[C@H]2[C@@H]3CCC4=CC(=O)CCC4=C3[C@@H](c3ccc(N(C)C)cc3)OC[C@@]21C
3.3 nM	58 nM	–	C=C(C)[C@]1(O)CC[C@H]2[C@@H]3CCC4=CC(=O)CCC4=C3[C@@H](c3ccc(SC)cc3)OC[C@@]21C
0.3 nM	150 nM	–	C=C(C)[C@]1(O)CC[C@H]2[C@@H]3CCC4=CC(=O)CCC4=C3[C@@H](c3ccc(N(C)C)cc3)OC[C@@]21C
> 1000 nM	> 3000 nM	–	C=C(C)[C@]1(O)CC[C@H]2[C@@H]3CCC4=CC(=O)CCC4=C3[C@@H](c3ccc(S(C)(=O)=O)cc3)OC[C@@]21C
7 nM	132 nM	–	C=C1CCO[C@]12CC[C@H]1[C@@H]3CCC4=CC(=O)CCC4=C3[C@@H](c3ccc(OC)cc3)OC[C@@]12C
> 1000 nM	41 nM	–	CC#C[C@]1(O)CC[C@H]2[C@@H]3CCC4=CC(=O)CCC4=C3[C@@H](c3ccc(OC)cc3)OC[C@@]21C
33 nM	68 nM	–	C#C[C@]1(O)CC[C@H]2[C@@H]3CCC4=CC(=O)CCC4=C3[C@@H](c3ccc(N(C)C)cc3)OC[C@@]21C

Continued, compound first:

SMILES	IC50 (Progesterone receptor)	IC50 (Glucocorticoid receptor)	IC50 (Rattus norvegicus)
COc1ccc([C@H]2OC[C@@]3(C)[C@@H](CC[C@@]3(O)C#Cc3ccccc3)[C@@H]3CCC4=CC(=O)CCC4=C32)cc1	280 nM	21 nM	–
C=C1CCO[C@]12CC[C@H]1[C@@H]3CCC4=CC(=O)CCC4=C3[C@@H](c3ccc(N(C)C)cc3)OC[C@@]12C	1 nM	62 nM	–
CSc1ccc([C@H]2OC[C@@]3(C)[C@@H](CC[C@@]3(O)C(F)(F)C(F)(F)F)[C@@H]3CCC4=CC(=O)CCC4=C32)cc1	56 nM	7 nM	–
CN(C)c1ccc([C@H]2OC[C@@]3(C)[C@@H](CC[C@@]3(O)C#Cc3ccccc3)[C@@H]3CCC4=CC(=O)CCC4=C32)cc1	60 nM	102 nM	–
CN(C)c1ccc([C@H]2OC[C@]3(C)[C@@H](O)CC[C@H]3[C@@H]3CCC4=CC(=O)CCC4=C32)cc1	930 nM	1400 nM	–
CN(C)c1ccc([C@H]2OC[C@@]3(C)[C@@H](CC[C@@]3(O)C(F)(F)C(F)(F)F)[C@@H]3CCC4=CC(=O)CCC4=C32)cc1	36 nM	20 nM	–
CC#C[C@]1(O)CC[C@H]2[C@@H]3CCC4=CC(=O)CCC4=C3[C@@H](c3ccc(N(C)C)cc3)C[C@@]21C [MIFEPRISTONE]	–	–	4.6 mg/kg
